The source of these data is patent publication US20090325959A1 (priority 2008, published 2009).

Read-outs that look alike come from different tables or passages of the source.

One experiment has as its target T1, ROCK2 (Homo sapiens, UniProt O75116).
T1 construct: purchased Upstate/Chemicon 14-451
Briefly: Rho kinase inhibition assay (IMAP fluorescence polarization), ROCK2.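 Further: kinase reaction started with 10 µM ATP and run 60 min at room temperature, then phosphorylated substrate captured on IMAP beads for 30 min and fluorescence polarization read in mP.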 It counts as biochemical.

The target of a further experiment is T2, ROCK1 (Homo sapiens, UniProt Q13464).
T2 construct: purchased Upstate/Chemicon 14-601
The experiment in a line: Rho kinase inhibition assay (IMAP fluorescence polarization), ROCK1.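 Further: kinase reaction run 60 min at room temperature, then phosphorylated substrate captured on IMAP beads for 30 min, with fluorescence polarization read in mP.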 It is filed as biochemical. A general note: Polarisation of emitted light reports the rotation of a fluorescent probe.

The mark [1] stands for this setting: 10 μM ATP, read-out: ROCK2 Ki, Avg.

T2 sequence (Q13464 17-535 limits assumed): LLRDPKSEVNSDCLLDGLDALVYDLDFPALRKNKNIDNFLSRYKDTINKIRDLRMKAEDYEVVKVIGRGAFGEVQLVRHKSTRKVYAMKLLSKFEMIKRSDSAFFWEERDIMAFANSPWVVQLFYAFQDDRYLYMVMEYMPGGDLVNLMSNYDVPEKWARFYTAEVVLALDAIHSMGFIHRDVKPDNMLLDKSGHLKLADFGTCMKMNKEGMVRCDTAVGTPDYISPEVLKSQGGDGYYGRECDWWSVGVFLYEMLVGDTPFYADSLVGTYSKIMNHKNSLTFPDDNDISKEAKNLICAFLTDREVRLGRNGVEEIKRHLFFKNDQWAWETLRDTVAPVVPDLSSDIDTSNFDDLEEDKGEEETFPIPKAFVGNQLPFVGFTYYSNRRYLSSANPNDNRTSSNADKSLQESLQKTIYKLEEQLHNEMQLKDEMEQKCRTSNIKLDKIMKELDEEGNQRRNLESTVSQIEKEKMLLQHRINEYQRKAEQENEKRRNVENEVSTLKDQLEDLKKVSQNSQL
T1 sequence (O75116 11-552 limits assumed): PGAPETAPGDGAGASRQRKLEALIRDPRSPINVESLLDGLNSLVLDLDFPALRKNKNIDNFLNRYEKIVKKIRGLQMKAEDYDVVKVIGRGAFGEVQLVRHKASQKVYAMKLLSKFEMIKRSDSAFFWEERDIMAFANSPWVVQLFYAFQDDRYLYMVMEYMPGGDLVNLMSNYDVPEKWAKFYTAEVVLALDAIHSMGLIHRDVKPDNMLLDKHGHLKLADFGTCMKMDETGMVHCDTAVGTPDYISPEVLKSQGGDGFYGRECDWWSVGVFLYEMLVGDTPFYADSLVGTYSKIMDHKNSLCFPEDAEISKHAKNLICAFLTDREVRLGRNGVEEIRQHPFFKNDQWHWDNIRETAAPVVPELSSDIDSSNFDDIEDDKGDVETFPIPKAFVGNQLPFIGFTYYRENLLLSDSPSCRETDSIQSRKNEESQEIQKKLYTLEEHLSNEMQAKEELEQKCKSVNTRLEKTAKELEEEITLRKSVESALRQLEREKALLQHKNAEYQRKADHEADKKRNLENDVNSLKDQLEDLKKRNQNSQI
Protocol for ROCK1: (§1) Following the pre-incubation, 10 μM ATP was added to initiate the reaction. After 60 minutes at room temperature, Molecular Devices IMAP™ binding solution was added to bind phosphorylated substrate. After 30 minutes of incubation in the presence of the IMAP™ beads, the fluorescence polarization was read and the ratio was reported as mP. IC50 values for compounds and EC50 values for ATP were calculated using the Prism software from Graphpad.
Protocol for ROCK2: as §1

For `Cn1ccnc1CN1CCC[C@H](Nc2ccc3[nH]ncc3c2)C1` [Compound 1.257, (S)-N-(1-((1-methyl-1H-imidazol-2-yl)methyl)piperidin-3-yl)-1H-indazol-5-amine], the Ki at ROCK2 (setting [1]) amounted to 168 nM; at ROCK1 (Avg, 10 μM ATP) it was 1270 nM.

For `CNC(=O)Nc1cccc(CN2CCC[C@@H](Nc3ccc4[nH]ncc4c3)C2)c1` [Compound 1.265, (R)-1-(3-((3-(1H-indazol-5-ylamino)piperidin-1-yl)methyl)phenyl)-3-methylurea], the Ki worked out at 21.6 nM on ROCK2 (setting [1]) and 162 nM at ROCK1 (Avg, 10 μM ATP).

In the case of `CC1(C)OC[C@H](COc2cccc(CN3CCC[C@@H](Nc4ccc5[nH]ncc5c4)C3)c2)O1` [Compound 1.222, N-((R)-1-(3-(((S)-2,2-dimethyl-1,3-dioxolan-4-yl)methoxy)benzyl)piperidin-3-yl)-1H-indazol-5-amine], the Ki at ROCK2 (setting [1]) stood at 75.5 nM; at ROCK1 (Avg, 10 μM ATP) it was 229 nM.

As for `c1c[nH]c(CN2CCC[C@H](Nc3ccc4[nH]ncc4c3)C2)n1` [Compound 1.256, (S)-N-(1-((1H-imidazol-2-yl)methyl)piperidin-3-yl)-1H-indazol-5-amine], the Ki at ROCK2 (setting [1]) worked out at 85.5 nM; on ROCK1 (Avg, 10 μM ATP), 700 nM.

On to `COc1ccc(CN2CC[C@@H](Nc3cccc4cnccc34)C2)cc1OCCO` [Compound 2.067, (R)-2-(5-((3-(isoquinolin-5-ylamino)pyrrolidin-1-yl)methyl)-2-methoxyphenoxy)ethanol], for which the Ki was found to be 4.2 nM on ROCK2 (setting [1]); 4.2 nM on ROCK2 (average Ki, read-out: ROCK2 Ki); 19.6 nM at ROCK1 (Avg, 10 μM ATP); 19.6 nM at ROCK1 (average Ki).

Consider `Fc1ccc(CN2CC[C@@H](Nc3cccc4cnccc34)C2)cc1F` [Compound 2.062, (R)-N-(1-(3,4-difluorobenzyl)pyrrolidin-3-yl)isoquinolin-5-amine], for which the Ki on ROCK2 (setting [1]) is 30.5 nM; at ROCK1 (Avg, 10 μM ATP) it was 63.4 nM.

For the compound `CC(CN1CCC[C@@H](Nc2ccc3[nH]ncc3c2)C1)c1ccccc1` (stereo partly drawn) [Compound 1.251, N-((3R)-1-(2-phenylpropyl)piperidin-3-yl)-1H-indazol-5-amine], the Ki came out at 49.2 nM on ROCK2 (setting [1]) and 207 nM on ROCK1 (Avg, 10 μM ATP).

With `CSc1nccc(CN2CC[C@@H](Nc3cccc4cnccc34)C2)n1` [Compound 2.082, (R)-N-(1-((2-(methylthio)pyrimidin-4-yl)methyl)pyrrolidin-3-yl)isoquinolin-5-amine], the Ki on ROCK2 (setting [1]) was 9 nM; at ROCK2 (average Ki, read-out: ROCK2 Ki), 9 nM; at ROCK1 (Avg, 10 μM ATP), 132 nM; on ROCK1 (average Ki), 132 nM.

With `CS(=O)(=O)Nc1cccc(CN2CCC[C@H](Nc3cccc4cnccc34)C2)c1` [Compound 2.037, (S)-N-(3-((3-(isoquinolin-5-ylamino)piperidin-1-yl)methyl)phenyl)methanesulfonamide], the Ki on ROCK2 (setting [1]) stood at 182 nM; on ROCK1 (Avg, 10 μM ATP), 921 nM.

With `C[C@@H](O)COc1cccc(CN2CCC[C@@H](Nc3ccc4[nH]ncc4c3)C2)c1` [Compound 1.116, (R)-1-(3-(((R)-3-(1H-indazol-5-ylamino)piperidin-1-yl)methyl)phenoxy)propan-2-ol], the Ki on ROCK2 (setting [1]) was found to be 48.9 nM; at ROCK1 (Avg, 10 μM ATP), 258 nM.

With `c1cc(N[C@@H]2CCN(Cc3ccncn3)C2)c2ccncc2c1` [Compound 2.083, (R)-N-(1-(pyrimidin-4-ylmethyl)pyrrolidin-3-yl)isoquinolin-5-amine], the Ki on ROCK2 (setting [1]) was found to be 858 nM; at ROCK1 (Avg, 10 μM ATP), 1880 nM.

Regarding `OCCCOc1cccc(CN2CCC[C@H](Nc3ccc4[nH]ncc4c3)C2)c1` [Compound 1.230, (S)-3-(3-((3-(1H-indazol-5-ylamino)piperidin-1-yl)methyl)phenoxy)propan-1-ol], the inhibitory constant (Ki) was 35.3 nM at ROCK2 (setting [1]) and 346 nM on ROCK1 (Avg, 10 μM ATP).

With `c1cc(N[C@@H]2CCN(Cc3cnccn3)C2)c2ccncc2c1` [Compound 2.086, (R)-N-(1-(pyrazin-2-ylmethyl)pyrrolidin-3-yl)isoquinolin-5-amine], the Ki at ROCK2 (setting [1]) was 358 nM; at ROCK1 (Avg, 10 μM ATP), 1250 nM.

On to `Cc1ccc(CN2CC[C@@H](Nc3cccc4cnccc34)C2)cc1NS(=O)(=O)N(C)C` [Compound 2.077], for which the Ki was determined as 33.7 nM on ROCK1 (Avg, 10 μM ATP) and 33.7 nM at ROCK1 (average Ki).

As for `Clc1ccc(CN2CC[C@@H](Nc3ccc4[nH]ncc4c3)C2)cc1Cl` [Compound 1.254, (R)-N-(1-(3,4-dichlorobenzyl)pyrrolidin-3-yl)-1H-indazol-5-amine], the Ki on ROCK2 (setting [1]) was 39 nM; at ROCK1 (Avg, 10 μM ATP), 116 nM.

As for `Cc1nc(CN2CC[C@@H](Nc3cccc4cnccc34)C2)c(C)o1` [Compound 2.091, (R)-N-(1-((2,5-dimethyloxazol-4-yl)methyl)pyrrolidin-3-yl)isoquinolin-5-amine], the Ki on ROCK2 (setting [1]) was 237 nM; on ROCK1 (Avg, 10 μM ATP), 776 nM.

`Cc1ccc(CN2CC[C@@H](Nc3ccc4[nH]ncc4c3)C2)cc1` [Compound 1.242, (R)-N-(1-(4-methylbenzyl)pyrrolidin-3-yl)-1H-indazol-5-amine]: the Ki at ROCK2 (setting [1]) is 17.5 nM; at ROCK1 (Avg, 10 μM ATP), 71.4 nM.

With `O=C(Nc1cccc(CN2CCC[C@@H](Nc3ccc4[nH]ncc4c3)C2)c1)N1CCCC1` [Compound 1.266, (R)-N-(3-((3-(1H-indazol-5-ylamino)piperidin-1-yl)methyl)phenyl)pyrrolidine-1-carboxamide], the Ki at ROCK2 (setting [1]) is 17.1 nM; at ROCK1 (Avg, 10 μM ATP), 53.8 nM.

For the compound `CCN(CC)C(=O)Nc1cccc(CN2CCC[C@@H](Nc3ccc4[nH]ncc4c3)C2)c1` [Compound 1.267, (R)-3-(3-((3-(1H-indazol-5-ylamino)piperidin-1-yl)methyl)phenyl)-1,1-diethylurea], the inhibition constant Ki stood at 23.9 nM at ROCK2 (setting [1]) and 98.8 nM at ROCK1 (Avg, 10 μM ATP).

With `c1cc(N[C@@H]2CCN(Cc3cncnc3)C2)c2ccncc2c1` [Compound 2.084, (R)-N-(1-(pyrimidin-5-ylmethyl)pyrrolidin-3-yl)isoquinolin-5-amine], the Ki on ROCK2 (setting [1]) stood at 350 nM; at ROCK1 (Avg, 10 μM ATP), 1170 nM.

On to `Clc1cccc(CN2CCC[C@@H](Nc3ccc4[nH]ncc4c3)C2)c1` [Compound 1.191, (R)-N-(1-(3-chlorobenzyl)piperidin-3-yl)-1H-indazol-5-amine], for which the Ki on ROCK2 (setting [1]) amounted to 33.4 nM; on ROCK1 (Avg, 10 μM ATP), 147 nM.

With `CS(=O)(=O)N1CCCc2cc(CN3CC[C@@H](Nc4cccc5cnccc45)C3)ccc21` [Compound 2.070, (R)-N-(1-((1-(methylsulfonyl)-1,2,3,4-tetrahydroquinolin-6-yl)methyl)pyrrolidin-3-yl)isoquinolin-5-amine], the Ki at ROCK2 (setting [1]) came to 48.4 nM; on ROCK1 (Avg, 10 μM ATP), 286 nM.

Regarding `c1cc(N[C@@H]2CCN(Cc3nc4ccccc4[nH]3)C2)c2ccncc2c1` [Compound 2.074, (R)-N-(1-((1H-benzo[d]imidazol-2-yl)methyl)pyrrolidin-3-yl)isoquinolin-5-amine], the Ki at ROCK2 (setting [1]) was 36.4 nM; on ROCK1 (Avg, 10 μM ATP), 133 nM.

For the compound `c1cc(CN2CCC[C@@H](Nc3ccc4[nH]ncc4c3)C2)cc(C2CC2)c1` [Compound 1.202, (R)-N-(1-(3-cyclopropylbenzyl)piperidin-3-yl)-1H-indazol-5-amine], the Ki came to 33 nM on ROCK2 (setting [1]) and 203 nM at ROCK1 (Avg, 10 μM ATP).

Regarding `Cc1ccc(CN2CCC[C@@H](Nc3ccc4[nH]ncc4c3)C2)cc1OCC(N)=O` [Compound 1.281], the Ki on ROCK2 (setting [1]) came out at 7.4 nM; on ROCK2 (average Ki, read-out: ROCK2 Ki), 7.4 nM; at ROCK1 (Avg, 10 μM ATP), 71.8 nM; at ROCK1 (average Ki), 71.8 nM.

With `CS(=O)(=O)c1ccc(CN2CCC[C@H](Nc3ccc4[nH]ncc4c3)C2)cc1` [Compound 1.181, (S)-N-(1-(4-(methylsulfonyl)benzyl)piperidin-3-yl)-1H-indazol-5-amine], the Ki on ROCK2 (setting [1]) worked out at 32.8 nM; on ROCK1 (Avg, 10 μM ATP), 568 nM.

On to `c1csc(CN2CC[C@@H](Nc3cccc4cnccc34)C2)c1` [Compound 2.090, (R)-N-(1-(thiophen-2-ylmethyl)pyrrolidin-3-yl)isoquinolin-5-amine], for which the Ki on ROCK2 (setting [1]) worked out at 19.5 nM; at ROCK1 (Avg, 10 μM ATP), 53.3 nM.

With `CS(=O)(=O)Cc1cccc(CN2CCC[C@@H](Nc3ccc4[nH]ncc4c3)C2)c1` [Compound 1.139, (R)-N-(1-(3-(methylsuifonylmethyl)benzyl)piperidin-3-yl)-1H-indazol-5-amine], the Ki amounted to 23.2 nM at ROCK2 (setting [1]) and 200 nM at ROCK1 (Avg, 10 μM ATP).

For `CS(=O)(=O)c1ccc(CN2CCC[C@@H](Nc3ccc4[nH]ncc4c3)C2)cc1` [Compound 1.205, (R)-N-(1-(4-(methylsulfonyl)benzyl)piperidin-3-yl)-1H-indazol-5-amine], the Ki on ROCK2 (setting [1]) came to 46.4 nM; at ROCK1 (Avg, 10 μM ATP) it was 498 nM.

`COc1nccc2c(N[C@@H]3CCN(Cc4ccc(C)c(OCCO)c4)C3)cccc12` [Compound 2.094, (R)-2-(5-((3-(1-methoxyisoquinolin-5-ylamino)pyrrolidin-1-yl)methyl)-2-methylphenoxy)ethanol] yielded a Ki at ROCK1 (Avg, 10 μM ATP) of 16600 nM.

For the compound `NCc1ccc(CN2CCC[C@@H](Nc3ccc4[nH]ncc4c3)C2)cc1` [Compound 1.188, (R)-N-(1-(4-(aminomethyl)benzyl)piperidin-3-yl)-1H-indazol-5-amine], the Ki at ROCK2 (read-out: ROCK2 Ki, Avg) worked out at 653 nM.

As for `NC(=O)COc1cccc(CN2CCC[C@@H](Nc3ccc4[nH]ncc4c3)C2)c1` [Compound 1.098, 2-(3-((3-(1H-indazol-5-ylamino)piperidin-1-yl)methyl)phenoxy)acetamide], the Ki on ROCK2 (setting [1]) was determined as 25 nM.

Take `CC1CNCCN1S(=O)(=O)c1cccc2cnccc12` (stereo not drawn) [Compound H7, reference compound]: the Ki on ROCK2 (setting [1]) came out at 125 nM.

On to `Clc1ccc(CN2CC[C@@H](Nc3ccc4[nH]ncc4c3)C2)cc1` [Compound 1.241, (R)-N-(1-(4-chlorobenzyl)pyrrolidin-3-yl)-1H-indazol-5-amine], for which, on ROCK1 (Avg, 10 μM ATP), the affinity, expressed as Ki, was 65.1 nM.

In the case of `CN(C)S(=O)(=O)Nc1cccc(CN2CCC[C@H](Nc3ccc4[nH]ncc4c3)C2)c1` [Compound 1.261], the Ki on ROCK1 (Avg, 10 μM ATP) stood at 307 nM; on ROCK1 (average Ki), 307 nM.

Regarding `Cc1c(CN2CCC[C@H](Nc3ccc4[nH]ncc4c3)C2)cccc1NS(=O)(=O)N(C)C` [Compound 1.275], the Ki turned out to be 402 nM at ROCK1 (Avg, 10 μM ATP) and 402 nM at ROCK1 (average Ki).

For `COc1c(CN2CC[C@@H](Nc3cccc4cnccc34)C2)cccc1NS(=O)(=O)N(C)C` [Compound 2.097], the Ki at ROCK1 (Avg, 10 μM ATP) turned out to be 35.4 nM; at ROCK1 (average Ki) it was 35.4 nM.

The term Ki denotes the dissociation constant of the complex between target and ligand, obtained from inhibition or displacement.
